# Assays:
# Experiment in all cases: KinomeScan panel screen
# Type in all cases: binding
# AURKA = biological target: T1, AURKA (Homo sapiens, UniProt O14965); details: 100 nM, read-out: Percent Control
# T1 construct: purchased DiscoveRx KINOMEscan (TRKA and CSF1R IC50 enzymes from Invitrogen)
# Description: (§1) In addition, NPA101.3, at a concentration of 100 nM, was subjected to a kinome scan against a 96-kinase panel representing major kinome clusters (Table S2). The compound featured good selectivity, displaying strong binding activity (>90% bound) for only seven additional kinases [CSF1R (colony stimulating factor 1 receptor), FRK (fyn-related Src family tyrosine kinase), HCK (HCK proto-oncogene, Src family tyrosine kinase), LYN (lyn proto-oncogene, Src family tyrosine kinase), MKNK2 (MAPK-interacting serine/threonine kinase 2), TRKA (neurotrophic receptor tyrosine kinase 1), and TRKC (neurotrophic receptor tyrosine kinase 3)] and weak binding (>10–35% bound) for six other kinases (Table S2 and Figure S2). It is important to note that the measurement of binding affinity, which is based on control ligand displacement (Kd), is more sensitive than the in vitro kinase assay. Among the seven kinases with >90% binding, TRKA and CSF1R were selected for an in vitro kinase assay.
# (§2) Supplementary Table S2: NPA101.3 KinomeScan Panel screen.
# (§3) NPA101.3 was screened at a single concentration of 100 nM. Hits values lower than
# (§4) 10% of control were considered strongly positive.
# (§5) DiscoveRx Gene Entrez Gene Percent Compound
# (§6) Symbol Symbol Control Concentration
# BRAF = biological target: T2, BRAF (Homo sapiens, UniProt P15056); details: 100 nM, read-out: Percent Control
# T2 construct: purchased DiscoveRx KINOMEscan (TRKA and CSF1R IC50 enzymes from Invitrogen)
# Description: as §1, §2, §3, §4, §5, §6
# BTK = biological target: T3, BTK (Homo sapiens, UniProt Q06187); details: 100 nM, read-out: Percent Control
# T3 construct: purchased DiscoveRx KINOMEscan (TRKA and CSF1R IC50 enzymes from Invitrogen)
# Description: as §1, §2, §3, §4, §5, §6
# BUB1 = biological target: T4, BUB1 (Homo sapiens, UniProt O43683); details: BUB1, 100 nM; read-out: Percent Control
# T4 construct: purchased DiscoveRx KINOMEscan (TRKA and CSF1R IC50 enzymes from Invitrogen)
# Description: as §1, §2, §3, §4, §5, §6
# CDK5 = biological target: T5, CDK5 (Homo sapiens, UniProt Q00535); details: CDK5, 100 nM; read-out: Percent Control
# T5 construct: purchased DiscoveRx KINOMEscan (TRKA and CSF1R IC50 enzymes from Invitrogen)
# Description: as §1, §2, §3, §4, §5, §6
# CDK9 = biological target: T6, CDK9 (Homo sapiens, UniProt P50750); details: CDK9, 100 nM; read-out: Percent Control
# T6 construct: purchased DiscoveRx KINOMEscan (TRKA and CSF1R IC50 enzymes from Invitrogen)
# Description: as §1, §2, §3, §4, §5, §6
# CSNK1A1 = biological target: T7, CSNK1A1 (Homo sapiens, UniProt P48729); details: CSNK1A1, 100 nM; read-out: Percent Control
# T7 construct: purchased DiscoveRx KINOMEscan (TRKA and CSF1R IC50 enzymes from Invitrogen)
# T7 sequence (P48729 whole entry): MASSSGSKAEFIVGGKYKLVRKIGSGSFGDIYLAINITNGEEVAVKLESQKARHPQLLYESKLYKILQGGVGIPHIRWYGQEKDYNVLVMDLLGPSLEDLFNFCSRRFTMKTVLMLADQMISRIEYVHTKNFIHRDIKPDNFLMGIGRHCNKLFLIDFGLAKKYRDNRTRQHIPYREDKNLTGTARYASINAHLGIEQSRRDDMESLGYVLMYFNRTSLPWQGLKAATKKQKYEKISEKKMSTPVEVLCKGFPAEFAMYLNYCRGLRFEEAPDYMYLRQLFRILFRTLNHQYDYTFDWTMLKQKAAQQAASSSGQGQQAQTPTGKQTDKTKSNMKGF
# Description: as §1, §2, §3, §4, §5, §6
# DYRK1A = biological target: T8, DYRK1A (Homo sapiens, UniProt Q13627); details: 100 nM, read-out: Percent Control
# T8 construct: purchased DiscoveRx KINOMEscan (TRKA and CSF1R IC50 enzymes from Invitrogen)
# Description: as §1, §2, §3, §4, §5, §6
# EIF2AK1 = biological target: T9, EIF2AK1 (Homo sapiens, UniProt Q9BQI3); details: EIF2AK1, 100 nM; read-out: Percent Control
# T9 construct: purchased DiscoveRx KINOMEscan (TRKA and CSF1R IC50 enzymes from Invitrogen)
# Description: as §1, §2, §3, §4, §5, §6
# FER = biological target: T10, FER (Homo sapiens, UniProt P16591); details: 100 nM, read-out: Percent Control
# T10 construct: purchased DiscoveRx KINOMEscan (TRKA and CSF1R IC50 enzymes from Invitrogen)
# T10 sequence (P16591 whole entry): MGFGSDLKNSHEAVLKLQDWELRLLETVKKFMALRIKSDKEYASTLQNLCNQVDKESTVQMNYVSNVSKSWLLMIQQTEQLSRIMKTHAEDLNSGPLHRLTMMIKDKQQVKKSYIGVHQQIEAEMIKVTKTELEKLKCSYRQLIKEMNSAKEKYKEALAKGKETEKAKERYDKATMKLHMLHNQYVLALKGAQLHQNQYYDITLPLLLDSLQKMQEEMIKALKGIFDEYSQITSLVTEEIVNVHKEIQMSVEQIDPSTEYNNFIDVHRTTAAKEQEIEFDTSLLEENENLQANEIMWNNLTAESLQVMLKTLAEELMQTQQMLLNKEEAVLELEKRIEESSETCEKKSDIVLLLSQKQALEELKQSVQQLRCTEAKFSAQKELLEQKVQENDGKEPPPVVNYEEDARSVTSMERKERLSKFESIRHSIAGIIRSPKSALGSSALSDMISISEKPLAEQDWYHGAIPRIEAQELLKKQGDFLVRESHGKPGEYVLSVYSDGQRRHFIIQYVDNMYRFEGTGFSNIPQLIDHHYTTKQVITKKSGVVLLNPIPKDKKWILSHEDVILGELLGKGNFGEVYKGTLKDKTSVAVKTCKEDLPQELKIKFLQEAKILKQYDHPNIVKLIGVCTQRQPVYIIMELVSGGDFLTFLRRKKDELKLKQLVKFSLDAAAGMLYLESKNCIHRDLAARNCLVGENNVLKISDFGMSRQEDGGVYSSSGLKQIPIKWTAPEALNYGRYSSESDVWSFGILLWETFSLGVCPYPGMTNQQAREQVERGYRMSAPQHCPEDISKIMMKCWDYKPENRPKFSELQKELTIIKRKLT
# Description: as §1, §2, §3, §4, §5, §6
# FRK = biological target: T11, FRK (Homo sapiens, UniProt P42685); details: 100 nM
# T11 construct: purchased DiscoveRx KINOMEscan (TRKA and CSF1R IC50 enzymes from Invitrogen)
# T11 sequence (P42685 whole entry): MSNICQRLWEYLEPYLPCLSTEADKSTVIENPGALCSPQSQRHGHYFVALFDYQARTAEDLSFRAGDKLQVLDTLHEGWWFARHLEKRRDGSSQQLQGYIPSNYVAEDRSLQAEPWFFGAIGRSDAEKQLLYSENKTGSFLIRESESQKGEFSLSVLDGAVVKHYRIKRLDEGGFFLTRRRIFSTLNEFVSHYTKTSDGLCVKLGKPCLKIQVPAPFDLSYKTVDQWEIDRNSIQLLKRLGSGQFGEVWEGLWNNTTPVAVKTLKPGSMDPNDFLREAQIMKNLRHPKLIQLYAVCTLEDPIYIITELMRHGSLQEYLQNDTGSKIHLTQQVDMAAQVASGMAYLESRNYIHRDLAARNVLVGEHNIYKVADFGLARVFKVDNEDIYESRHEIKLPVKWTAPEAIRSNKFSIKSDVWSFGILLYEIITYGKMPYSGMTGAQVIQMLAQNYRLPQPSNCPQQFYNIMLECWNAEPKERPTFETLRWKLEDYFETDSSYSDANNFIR
# Description: as §1, §2, §3, §4, §5, §6
# INSR = biological target: T12, INSR (Homo sapiens, UniProt P06213); details: 100 nM, read-out: Percent Control
# T12 construct: purchased DiscoveRx KINOMEscan (TRKA and CSF1R IC50 enzymes from Invitrogen)
# T12 sequence (P06213 28-1382): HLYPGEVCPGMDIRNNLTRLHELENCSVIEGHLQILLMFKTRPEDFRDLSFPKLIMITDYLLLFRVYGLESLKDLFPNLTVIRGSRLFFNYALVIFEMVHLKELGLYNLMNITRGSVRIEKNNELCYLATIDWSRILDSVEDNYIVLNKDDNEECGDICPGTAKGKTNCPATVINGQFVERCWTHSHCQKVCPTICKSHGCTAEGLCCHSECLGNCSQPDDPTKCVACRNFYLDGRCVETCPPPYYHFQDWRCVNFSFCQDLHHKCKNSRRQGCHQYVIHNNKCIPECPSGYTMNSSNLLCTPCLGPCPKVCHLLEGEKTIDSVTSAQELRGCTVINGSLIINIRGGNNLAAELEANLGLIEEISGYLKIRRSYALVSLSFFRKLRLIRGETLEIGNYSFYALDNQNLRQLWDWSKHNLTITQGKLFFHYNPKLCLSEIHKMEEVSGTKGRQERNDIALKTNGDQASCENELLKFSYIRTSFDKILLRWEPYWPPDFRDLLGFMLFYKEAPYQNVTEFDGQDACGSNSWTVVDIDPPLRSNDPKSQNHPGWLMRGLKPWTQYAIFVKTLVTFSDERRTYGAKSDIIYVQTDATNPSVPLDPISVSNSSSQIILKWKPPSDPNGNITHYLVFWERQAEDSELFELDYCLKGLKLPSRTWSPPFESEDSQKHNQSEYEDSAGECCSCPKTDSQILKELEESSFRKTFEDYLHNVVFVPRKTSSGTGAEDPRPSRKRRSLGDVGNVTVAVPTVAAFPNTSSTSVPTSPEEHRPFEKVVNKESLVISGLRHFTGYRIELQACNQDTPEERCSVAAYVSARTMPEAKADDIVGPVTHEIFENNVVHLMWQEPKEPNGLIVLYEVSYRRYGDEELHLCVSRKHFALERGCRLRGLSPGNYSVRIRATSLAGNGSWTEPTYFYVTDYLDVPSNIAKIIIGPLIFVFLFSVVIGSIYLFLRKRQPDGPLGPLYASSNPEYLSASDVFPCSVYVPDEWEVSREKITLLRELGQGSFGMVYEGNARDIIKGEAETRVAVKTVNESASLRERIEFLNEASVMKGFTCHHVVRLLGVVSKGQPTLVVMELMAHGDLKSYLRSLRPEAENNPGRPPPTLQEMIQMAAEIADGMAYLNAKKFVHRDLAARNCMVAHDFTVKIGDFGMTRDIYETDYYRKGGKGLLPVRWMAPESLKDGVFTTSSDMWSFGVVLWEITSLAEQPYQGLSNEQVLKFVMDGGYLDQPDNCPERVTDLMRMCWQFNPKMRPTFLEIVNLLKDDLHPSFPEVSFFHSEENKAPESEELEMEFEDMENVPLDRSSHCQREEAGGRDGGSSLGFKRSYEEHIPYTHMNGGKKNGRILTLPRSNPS
# Description: as §1, §2, §3, §4, §5, §6
# IRAK4 = biological target: T13, IRAK4 (Homo sapiens, UniProt Q9NWZ3); details: IRAK4, 100 nM; read-out: Percent Control
# T13 construct: purchased DiscoveRx KINOMEscan (TRKA and CSF1R IC50 enzymes from Invitrogen)
# Description: as §1, §2, §3, §4, §5, §6
# [1] = biological target: T14, JAK1(JH2domain-pseudokinase) (Homo sapiens, UniProt P23458); details: 100 nM, read-out: Percent Control
# T14 construct: JAK1(JH2domain-pseudokinase); purchased DiscoveRx KINOMEscan (TRKA and CSF1R IC50 enzymes from Invitrogen)
# Description: as §1, §2, §3, §4, §5, §6
# LKB1 = biological target: T15, LKB1 (Homo sapiens, UniProt Q15831); details: LKB1, 100 nM; read-out: Percent Control
# T15 construct: purchased DiscoveRx KINOMEscan (TRKA and CSF1R IC50 enzymes from Invitrogen)
# T15 sequence (Q15831 whole entry): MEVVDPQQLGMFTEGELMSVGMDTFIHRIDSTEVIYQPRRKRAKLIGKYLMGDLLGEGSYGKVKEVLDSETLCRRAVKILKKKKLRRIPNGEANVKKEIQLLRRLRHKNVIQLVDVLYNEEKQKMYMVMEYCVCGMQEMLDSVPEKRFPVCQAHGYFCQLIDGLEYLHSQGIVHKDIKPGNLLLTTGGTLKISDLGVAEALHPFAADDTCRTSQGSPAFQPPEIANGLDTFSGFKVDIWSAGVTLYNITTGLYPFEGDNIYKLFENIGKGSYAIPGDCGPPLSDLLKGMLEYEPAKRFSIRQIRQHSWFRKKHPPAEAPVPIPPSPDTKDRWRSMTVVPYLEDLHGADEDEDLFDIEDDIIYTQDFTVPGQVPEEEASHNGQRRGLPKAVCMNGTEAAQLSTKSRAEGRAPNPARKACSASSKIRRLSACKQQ
# Description: as §1, §2, §3, §4, §5, §6
# LRRK2 = biological target: T16, LRRK2 (Homo sapiens, UniProt Q5S007); details: LRRK2, 100 nM; read-out: Percent Control
# T16 construct: purchased DiscoveRx KINOMEscan (TRKA and CSF1R IC50 enzymes from Invitrogen)
# Description: as §1, §2, §3, §4, §5, §6
# MAP4K3 = biological target: T17, MAP4K3 (Homo sapiens, UniProt Q8IVH8); details: MAP4K3, 100 nM; read-out: Percent Control
# T17 construct: purchased DiscoveRx KINOMEscan (TRKA and CSF1R IC50 enzymes from Invitrogen)
# T17 sequence (Q8IVH8 whole entry): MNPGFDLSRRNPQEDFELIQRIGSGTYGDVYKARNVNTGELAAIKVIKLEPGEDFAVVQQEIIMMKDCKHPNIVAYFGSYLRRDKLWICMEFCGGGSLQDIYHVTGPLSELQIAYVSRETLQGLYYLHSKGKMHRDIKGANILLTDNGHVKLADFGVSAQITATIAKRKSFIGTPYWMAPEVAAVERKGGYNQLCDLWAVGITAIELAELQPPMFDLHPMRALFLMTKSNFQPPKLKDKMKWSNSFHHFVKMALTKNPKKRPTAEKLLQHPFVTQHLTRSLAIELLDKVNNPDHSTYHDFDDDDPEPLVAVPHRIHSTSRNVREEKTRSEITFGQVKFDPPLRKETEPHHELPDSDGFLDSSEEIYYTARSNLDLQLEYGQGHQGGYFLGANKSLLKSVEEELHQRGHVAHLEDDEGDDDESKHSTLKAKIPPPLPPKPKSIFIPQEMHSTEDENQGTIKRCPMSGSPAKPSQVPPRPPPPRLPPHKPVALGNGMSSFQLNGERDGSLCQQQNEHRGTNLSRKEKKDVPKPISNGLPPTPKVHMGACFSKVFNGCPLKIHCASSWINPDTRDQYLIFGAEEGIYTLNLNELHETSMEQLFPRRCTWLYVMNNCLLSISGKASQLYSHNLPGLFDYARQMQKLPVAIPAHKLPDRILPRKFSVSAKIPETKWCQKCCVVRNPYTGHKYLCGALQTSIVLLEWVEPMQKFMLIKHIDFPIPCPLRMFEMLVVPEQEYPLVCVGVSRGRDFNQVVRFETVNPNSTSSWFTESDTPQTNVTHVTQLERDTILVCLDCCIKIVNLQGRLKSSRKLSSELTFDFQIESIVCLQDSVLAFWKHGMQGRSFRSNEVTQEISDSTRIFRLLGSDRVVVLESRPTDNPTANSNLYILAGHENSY
# Description: as §1, §2, §3, §4, §5, §6
# MEK1 = biological target: T18, MEK1 (Homo sapiens, UniProt Q02750); details: MEK1, 100 nM; read-out: Percent Control
# T18 construct: purchased DiscoveRx KINOMEscan (TRKA and CSF1R IC50 enzymes from Invitrogen)
# T18 sequence (Q02750 whole entry): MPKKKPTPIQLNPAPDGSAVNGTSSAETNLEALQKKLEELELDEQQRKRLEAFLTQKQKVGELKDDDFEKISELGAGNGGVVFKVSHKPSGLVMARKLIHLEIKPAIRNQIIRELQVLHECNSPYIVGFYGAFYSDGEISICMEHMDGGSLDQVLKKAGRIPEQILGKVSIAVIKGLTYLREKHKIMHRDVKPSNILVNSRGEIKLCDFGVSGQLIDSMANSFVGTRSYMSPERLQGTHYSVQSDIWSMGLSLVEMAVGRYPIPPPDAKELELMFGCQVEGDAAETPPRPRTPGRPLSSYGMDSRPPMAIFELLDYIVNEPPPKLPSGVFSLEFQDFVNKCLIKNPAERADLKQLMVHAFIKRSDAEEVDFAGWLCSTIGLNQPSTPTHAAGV
# Description: as §1, §2, §3, §4, §5, §6
# MELK = biological target: T19, MELK (Homo sapiens, UniProt Q14680); details: 100 nM, read-out: Percent Control
# T19 construct: purchased DiscoveRx KINOMEscan (TRKA and CSF1R IC50 enzymes from Invitrogen)
# Description: as §1, §2, §3, §4, §5, §6
# PAK1 = biological target: T20, PAK1 (Homo sapiens, UniProt Q13153); details: PAK1, 100 nM; read-out: Percent Control
# T20 construct: purchased DiscoveRx KINOMEscan (TRKA and CSF1R IC50 enzymes from Invitrogen)
# Description: as §1, §2, §3, §4, §5, §6
# PCTK1 = biological target: T21, PCTK1 (Homo sapiens, UniProt Q00536); details: PCTK1, 100 nM; read-out: Percent Control
# T21 construct: purchased DiscoveRx KINOMEscan (TRKA and CSF1R IC50 enzymes from Invitrogen)
# Description: as §1, §2, §3, §4, §5, §6
# PIK3C2B = biological target: T22, PIK3C2B (Homo sapiens, UniProt O00750); details: 100 nM, read-out: Percent Control
# T22 construct: purchased DiscoveRx KINOMEscan (TRKA and CSF1R IC50 enzymes from Invitrogen)
# Description: as §1, §2, §3, §4, §5, §6
# PIM2 = biological target: T23, PIM2 (Homo sapiens, UniProt Q9P1W9); details: PIM2, 100 nM; read-out: Percent Control
# T23 construct: purchased DiscoveRx KINOMEscan (TRKA and CSF1R IC50 enzymes from Invitrogen)
# Description: as §1, §2, §3, §4, §5, §6
# PLK1 = biological target: T24, PLK1 (Homo sapiens, UniProt P53350); details: PLK1, 100 nM; read-out: Percent Control
# T24 construct: purchased DiscoveRx KINOMEscan (TRKA and CSF1R IC50 enzymes from Invitrogen)
# Description: as §1, §2, §3, §4, §5, §6
# PYK2 = biological target: T25, PYK2 (Homo sapiens, UniProt Q14289); details: PYK2, 100 nM; read-out: Percent Control
# T25 construct: purchased DiscoveRx KINOMEscan (TRKA and CSF1R IC50 enzymes from Invitrogen)
# Description: as §1, §2, §3, §4, §5, §6
# [2] = biological target: T26, RPS6KA4(Kin.Dom.2-C-terminal) (Homo sapiens, UniProt O75676); details: 100 nM, read-out: Percent Control
# T26 construct: RPS6KA4(Kin.Dom.2-C-terminal); purchased DiscoveRx KINOMEscan (TRKA and CSF1R IC50 enzymes from Invitrogen)
# T26 sequence (O75676 411-674 limits assumed): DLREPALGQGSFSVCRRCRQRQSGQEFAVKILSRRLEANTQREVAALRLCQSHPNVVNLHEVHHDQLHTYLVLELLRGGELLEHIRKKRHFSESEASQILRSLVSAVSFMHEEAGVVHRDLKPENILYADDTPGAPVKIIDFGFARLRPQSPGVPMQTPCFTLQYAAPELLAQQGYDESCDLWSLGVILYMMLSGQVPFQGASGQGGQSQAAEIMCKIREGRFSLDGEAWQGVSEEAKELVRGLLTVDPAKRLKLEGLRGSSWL
# Description: as §1, §2, §3, §4, §5, §6
# S6K1 = biological target: T27, S6K1 (Homo sapiens, UniProt P23443); details: S6K1, 100 nM; read-out: Percent Control
# T27 construct: purchased DiscoveRx KINOMEscan (TRKA and CSF1R IC50 enzymes from Invitrogen)
# Description: as §1, §2, §3, §4, §5, §6
# TLK1 = biological target: T28, TLK1 (Homo sapiens, UniProt Q9UKI8); details: TLK1, 100 nM; read-out: Percent Control
# T28 construct: purchased DiscoveRx KINOMEscan (TRKA and CSF1R IC50 enzymes from Invitrogen)
# Description: as §1, §2, §3, §4, §5, §6
# TTK = biological target: T29, TTK (Homo sapiens, UniProt P33981); details: 100 nM, read-out: Percent Control
# T29 construct: purchased DiscoverX (outsourced KINOMEscan)
# Description: as §1, §2, §3, §4, §5, §6
structure (smiles),measurement,setting,value
CC(C)(C)c1cc(NC(=O)Cc2ccc(-n3cnc4cc(-c5ccc(S(C)(=O)=O)cc5)ccc43)cc2)no1 [NPA101.3],remaining binding at 0.1 µM,AURKA,100%
same,remaining binding at 0.1 µM,BRAF,98%
same,remaining binding at 0.1 µM,BTK,93%
same,remaining binding at 0.1 µM,BUB1,100%
same,remaining binding at 0.1 µM,CDK5,97%
same,remaining binding at 0.1 µM,CDK9,100%
same,remaining binding at 0.1 µM,CSNK1A1,69%
same,remaining binding at 0.1 µM,DYRK1A,95%
same,remaining binding at 0.1 µM,EIF2AK1,99%
same,remaining binding at 0.1 µM,FER,96%
same,binding (% bound),FRK,> 90 % bound
same,remaining binding at 0.1 µM,"FRK; FRK, read-out: Percent Control",1.1%
same,remaining binding at 0.1 µM,INSR,100%
same,remaining binding at 0.1 µM,IRAK4,100%
same,remaining binding at 0.1 µM,[1],93%
same,remaining binding at 0.1 µM,LKB1,81%
same,remaining binding at 0.1 µM,LRRK2,100%
same,remaining binding at 0.1 µM,MAP4K3,95%
same,remaining binding at 0.1 µM,MEK1,92%
same,remaining binding at 0.1 µM,MELK,83%
same,remaining binding at 0.1 µM,PAK1,100%
same,remaining binding at 0.1 µM,PCTK1,89%
same,remaining binding at 0.1 µM,PIK3C2B,100%
same,remaining binding at 0.1 µM,PIM2,94%
same,remaining binding at 0.1 µM,PLK1,99%
same,remaining binding at 0.1 µM,PYK2,95%
same,remaining binding at 0.1 µM,[2],100%
same,remaining binding at 0.1 µM,S6K1,100%
same,remaining binding at 0.1 µM,TLK1,100%
same,remaining binding at 0.1 µM,TTK,66%

# — PMC7901654, “Bioisosteric Discovery of NPA101.3, a Second-Generation RET/VEGFR2 Inhibitor Optimized for Single-Agent Polypharmacology” (Journal of Medicinal Chemistry, 2020)
